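How tested: cells in 96-well plates exposed to compound for 48 hours at five concentrations. GI50: concentration for 50% inhibition of growth.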 The source made the active and inactive calls. Cut-off read from the data, not from the text of the source: active = GI50 up to about 1.1 µM and inactive = higher.
Legend:
Assay in all cases: NCI anticancer screen, dose series, 48 h
MOLT-4 = test system: MOLT-4
OVCAR-3 = test system: OVCAR-3
TK-10 = test system: TK-10
K562 = test system: K562
SN12C = test system: SN12C
HL-60 = test system: HL-60
HOP-62 = test system: HOP-62
SNB-75 = test system: SNB-75
EKVX = test system: EKVX
NCI-H23 = test system: NCI-H23
KM12 = test system: KM12
A549 = test system: A549
OVCAR-8 = test system: OVCAR-8
HCT-15 = test system: HCT-15
M14 = test system: M14
SW-620 = test system: SW-620
HCT-116 = test system: HCT-116
SK-OV-3 = test system: SK-OV-3
SK-MEL-2 = test system: SK-MEL-2
ACHN = test system: ACHN

SMILES: CCOc1ncn(-c2ccc(NC(=S)Nc3ncccn3)cc2)n1
- GI50 (MOLT-4): 20.1 µM (inactive)
- GI50 (OVCAR-3): 37.7 µM (inactive)
- GI50 (TK-10): 41.3 µM (inactive)
- GI50 (K562): 25.8 µM (inactive)
- GI50 (SN12C): 51.1 µM (inactive)
- GI50 (HL-60): 16.2 µM (inactive)
- GI50 (HOP-62): > 100 µM (inactive)
- GI50 (SNB-75): 12.1 µM (inactive)
- GI50 (EKVX): 64 µM (inactive)
- GI50 (NCI-H23): 81.5 µM (inactive)
- GI50 (KM12): > 100 µM (inactive)
- GI50 (A549): 32.1 µM (inactive)
- GI50 (OVCAR-8): 24.8 µM (inactive)
- GI50 (HCT-15): 39 µM
- GI50 (M14): 31.5 µM (inactive)
- GI50 (SW-620): 54.6 µM (inactive)
- GI50 (HCT-116): 32.5 µM (inactive)
- GI50 (SK-OV-3): > 100 µM (inactive)

SMILES: CCN1c2ccccc2-n2c(C)nnc2-c2c(-c3ccccc3)n[nH]c21
- GI50 (MOLT-4): 18.2 µM (inactive)
- GI50 (OVCAR-3): 36.4 µM (inactive)
- GI50 (TK-10): 41.4 µM (inactive)
- GI50 (K562): 4.83 µM (inactive)
- GI50 (SN12C): 24.4 µM (inactive)
- GI50 (HL-60): 12.4 µM (inactive)
- GI50 (SK-MEL-2): 19.7 µM (inactive)
- GI50 (ACHN): 14.3 µM (inactive)
- GI50 (SNB-75): 67 µM (inactive)
- GI50 (EKVX): 49.7 µM (inactive)
- GI50 (NCI-H23): 35.5 µM (inactive)
- GI50 (KM12): 26.5 µM (inactive)
- GI50 (A549): 22.4 µM (inactive)
- GI50 (OVCAR-8): 24.7 µM (inactive)
- GI50 (HCT-15): 11.1 µM
- GI50 (M14): 26.4 µM (inactive)
- GI50 (SW-620): 36.2 µM (inactive)
- GI50 (HCT-116): 26.5 µM (inactive)
- GI50 (SK-OV-3): 57.9 µM (inactive)

SMILES: CCOC(=O)CCN1C(=O)c2c(NC(=O)C(=O)O)cccc2S1(=O)=O
- GI50 (MOLT-4): > 100 µM (inactive)
- GI50 (TK-10): > 100 µM (inactive)
- GI50 (K562): > 100 µM (inactive)
- GI50 (SN12C): > 100 µM (inactive)
- GI50 (HL-60): > 100 µM (inactive)
- GI50 (HOP-62): > 100 µM (inactive)
- GI50 (SK-MEL-2): > 100 µM (inactive)
- GI50 (ACHN): > 100 µM (inactive)
- GI50 (EKVX): > 100 µM (inactive)
- GI50 (NCI-H23): > 100 µM (inactive)
- GI50 (KM12): > 100 µM (inactive)
- GI50 (A549): > 100 µM (inactive)
- GI50 (OVCAR-8): > 100 µM (inactive)
- GI50 (HCT-15): > 100 µM
- GI50 (M14): > 100 µM (inactive)
- GI50 (SW-620): > 100 µM (inactive)
- GI50 (HCT-116): > 100 µM (inactive)
- GI50 (SK-OV-3): > 100 µM (inactive)

SMILES: C=C1C(=O)OC2C[C@@]3(C)CCCC(=C)C3CC12 (some centres undefined)
- GI50 (OVCAR-3): 10.4 µM (inactive)
- GI50 (TK-10): 11.4 µM (inactive)
- GI50 (SN12C): 4.44 µM (inactive)
- GI50 (HOP-62): 20.5 µM (inactive)
- GI50 (SK-MEL-2): 3.91 µM (inactive)
- GI50 (ACHN): 14 µM (inactive)
- GI50 (SNB-75): 7.23 µM (inactive)
- GI50 (EKVX): 17.1 µM (inactive)
- GI50 (NCI-H23): 13.7 µM (inactive)
- GI50 (KM12): 2.24 µM (inactive)
- GI50 (A549): 12.2 µM (inactive)
- GI50 (OVCAR-8): 11.7 µM (inactive)
- GI50 (HCT-15): 10.9 µM
- GI50 (M14): 6.34 µM (inactive)
- GI50 (SW-620): 3.92 µM (inactive)
- GI50 (HCT-116): 4.05 µM (inactive)
- GI50 (SK-OV-3): 19.5 µM (inactive)

SMILES: CCc1c(-c2ccc(OC)cc2)oc(OC)c(C)c1=O
- GI50 (MOLT-4): 31.9 µM (inactive)
- GI50 (OVCAR-3): 62.8 µM (inactive)
- GI50 (TK-10): > 100 µM (inactive)
- GI50 (K562): 34.2 µM (inactive)
- GI50 (SN12C): > 100 µM (inactive)
- GI50 (HOP-62): > 100 µM (inactive)
- GI50 (SK-MEL-2): > 100 µM (inactive)
- GI50 (ACHN): 42.3 µM (inactive)
- GI50 (SNB-75): 33.2 µM (inactive)
- GI50 (EKVX): 63.4 µM (inactive)
- GI50 (NCI-H23): > 100 µM (inactive)
- GI50 (KM12): > 100 µM (inactive)
- GI50 (A549): 79.1 µM (inactive)
- GI50 (OVCAR-8): > 100 µM (inactive)
- GI50 (HCT-15): > 100 µM
- GI50 (M14): > 100 µM (inactive)
- GI50 (SW-620): > 100 µM (inactive)
- GI50 (HCT-116): 55.1 µM (inactive)
- GI50 (SK-OV-3): > 100 µM (inactive)

SMILES: CCP(=O)(CC)C(Cl)(Cl)C(O)C(Cl)(Cl)Cl (centres undefined)
- GI50 (MOLT-4): > 100 µM (inactive)
- GI50 (OVCAR-3): > 100 µM (inactive)
- GI50 (TK-10): > 100 µM (inactive)
- GI50 (K562): > 100 µM (inactive)
- GI50 (SN12C): > 100 µM (inactive)
- GI50 (HL-60): > 100 µM (inactive)
- GI50 (HOP-62): > 100 µM (inactive)
- GI50 (SK-MEL-2): > 100 µM (inactive)
- GI50 (ACHN): > 100 µM (inactive)
- GI50 (SNB-75): > 100 µM (inactive)
- GI50 (NCI-H23): > 100 µM (inactive)
- GI50 (A549): > 100 µM (inactive)
- GI50 (OVCAR-8): > 100 µM (inactive)
- GI50 (HCT-15): > 100 µM
- GI50 (M14): > 100 µM (inactive)
- GI50 (SW-620): > 100 µM (inactive)
- GI50 (HCT-116): > 100 µM (inactive)
- GI50 (SK-OV-3): > 100 µM (inactive)

SMILES: COc1ccc(-c2cc(O)c3c(C)ccnc3n2)cc1
- GI50 (MOLT-4): 12.1 µM (inactive)
- GI50 (TK-10): 41.1 µM (inactive)
- GI50 (K562): 3.85 µM (inactive)
- GI50 (SN12C): 27.7 µM (inactive)
- GI50 (HOP-62): 20.7 µM (inactive)
- GI50 (SK-MEL-2): 7.6 µM (inactive)
- GI50 (ACHN): 21.2 µM (inactive)
- GI50 (EKVX): 30.7 µM (inactive)
- GI50 (NCI-H23): 19 µM (inactive)
- GI50 (KM12): 3.18 µM (inactive)
- GI50 (A549): 10.3 µM (inactive)
- GI50 (OVCAR-8): 25.9 µM (inactive)
- GI50 (HCT-15): 5.61 µM
- GI50 (M14): 10.8 µM (inactive)
- GI50 (SW-620): 4.81 µM (inactive)
- GI50 (SK-OV-3): 23 µM (inactive)

SMILES: C/C(=C/CC[C@](C)(OC1OC(CO)C(O)C(O)C1O)[C@H]1CC[C@]2(C)[C@@H]1CC[C@@H]1[C@@]3(C)CC[C@H](O)C(C)(C)[C@@H]3C[C@H](O)[C@]12CO)CO (some centres undefined)
- GI50 (MOLT-4): > 100 µM (inactive)
- GI50 (OVCAR-3): > 100 µM (inactive)
- GI50 (TK-10): > 100 µM (inactive)
- GI50 (K562): > 100 µM (inactive)
- GI50 (SN12C): > 100 µM (inactive)
- GI50 (HL-60): > 100 µM (inactive)
- GI50 (HOP-62): > 100 µM (inactive)
- GI50 (ACHN): > 100 µM (inactive)
- GI50 (SNB-75): > 100 µM (inactive)
- GI50 (EKVX): > 100 µM (inactive)
- GI50 (NCI-H23): > 100 µM (inactive)
- GI50 (KM12): > 100 µM (inactive)
- GI50 (A549): > 100 µM (inactive)
- GI50 (OVCAR-8): > 100 µM (inactive)
- GI50 (HCT-15): > 100 µM
- GI50 (M14): > 100 µM (inactive)
- GI50 (SW-620): > 100 µM (inactive)
- GI50 (HCT-116): > 100 µM (inactive)
- GI50 (SK-OV-3): > 100 µM (inactive)
